Reference: patent US11542240B2, “STK19 inhibitors for treatment of cancer” (TRUSTEES OF BOSTON UNIVERSITY, priority 2018, dated 2023)
Like-named read-outs stand apart in the source and are kept apart here.

What was measured:
A375 cells [1] = experiment: cell proliferation rate, 4 days; format: cell-based, human; settings: A375, 4 days
Text: (§1) In addition, the inventors investigated the growth inhibitory effects of IV in melanoma cells with different NRAS and BRAF status, including A375 and UACC62 (NRASWT, BRAFV600E), and SK-MEL-2 and WM2032 (NRASQ61R, BRAFWT).

SK-MEL-2 cells [2] = experiment: cell proliferation rate, 4 days; format: cell-based, human; settings: SK-MEL-2, 4 days
Text: as §1

WM2032 cells [3] = experiment: cell proliferation rate, 4 days; format: cell-based, human; settings: WM2032, 4 days
Text: as §1

UACC62 cells [4] = experiment: cell proliferation rate, 4 days; format: cell-based, human; settings: UACC62, 4 days
Text: as §1

STK19 L139F = STK19 L139F (Homo sapiens (Human), UniProt P49842, L139F); experiment: STK19 kinase assay, L139F mutant; settings: L139F mutation
Sequence of STK19 L139F (P49842 other isoform, or with tags, fused parts or gaps L139F): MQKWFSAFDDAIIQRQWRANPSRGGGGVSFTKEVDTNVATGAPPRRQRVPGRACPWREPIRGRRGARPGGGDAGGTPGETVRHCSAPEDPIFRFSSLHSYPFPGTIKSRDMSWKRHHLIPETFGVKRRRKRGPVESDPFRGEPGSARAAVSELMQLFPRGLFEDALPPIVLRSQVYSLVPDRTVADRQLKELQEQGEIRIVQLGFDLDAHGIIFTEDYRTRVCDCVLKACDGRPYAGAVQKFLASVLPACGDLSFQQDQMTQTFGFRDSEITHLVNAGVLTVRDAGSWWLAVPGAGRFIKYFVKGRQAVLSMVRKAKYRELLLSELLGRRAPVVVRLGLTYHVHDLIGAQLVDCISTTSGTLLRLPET

STK19 [5] = biological target: T1, STK19 (Homo sapiens (Human), UniProt P49842); experiment: in vitro kinase assay, HA-NRASQ61R phosphorylation by immunoblot; settings: dose- and time-dependent; different doses 15 min or 3 μM different times
T1 sequence (P49842 other isoform, or with tags, fused parts or gaps): as the sequence (P49842 other isoform, or with tags, fused parts or gaps L139F) above, with F139L counted along it

[6] = test system: hTERT/p53DD/CDK4(R24C) melanocytes; experiment: colony formation assay of NRASQ61R-expressing immortal melanocytes; format: cell-based, human; settings: 3 μM IV
UACC62 cells [7] = experiment: immunoblots of NRAS phosphorylation and NRAS signaling; format: cell-based, human; settings: UACC62 (NRASWT, BRAFV600E)
SK-MEL-2 cells [8] = format: cell-based, human
Text: as §1
(§2) To further confirm the pharmacological effects of IV derive from STK19 inhibition and not G9a inhibition, the inventors investigated the role of G9a in NRAS signaling activation. G9a was silenced by G9a-specific shRNA or inhibited by a specific inhibitor, A-366, in SK-MEL-2 and WM2032 melanoma cells. […] In summary, ZT-12-037-01 (IV) is a specific STK19-targeted inhibitor to block oncogenic NRAS-driven melanocyte malignant transformation and melanoma growth.

WM2032 cells [9] = format: cell-based, human
Text: as §1, §2

[10] = test system: SK-MEL-2 xenograft melanoma (with NRASQ61R); experiment: SK-MEL-2 xenograft in nude mice; format: in vivo, mouse
Experimental: (§3) FIGS. 6B-6D. Growth curve, tumor weight, and dissected tumors for the xenograft experiments with indicated cells inoculated subcutaneously into flanks of nude mice treated with IV. Visible tumors were measured every three days. […] (FIGS. 6E-6G) Growth curve, tumor weight, and dissected tumors for the xenograft experiments with SK-MEL-2 cells inoculated subcutaneously into flanks of nude mice treated with IV. Visible tumors were measured every three days. […] (FIGS. 6H-6I) Effects of IV treatment on in vivo proliferation and apoptosis were evaluated by staining of the sections of tumor collected in G for Ki67 and cleaved caspase-3. The sections were counterstained with DAPI. Data are means±SD (n=7). Representative images were shown. Scale bar, 100 μm.

A375 cells [11] = experiment: immunoblots of NRAS phosphorylation and NRAS signaling; format: cell-based, human; settings: A375 (NRASWT, BRAFV600E)
UACC62 cells [12] = experiment: caspase activity assay (apoptosis), 4 days; format: cell-based, human; settings: UACC62, 4 days
[13] = tolerability study in C57BL/6J mice (body weight, blood chemistry, H&E histology)
STK19 [14] = biological target: T1, STK19; experiment: thermal denaturation curve shift of STK19; settings: read-out: shift in the melting temperature of STK19
[15] = biological target: G9a histone lysine methyltransferase (Homo sapiens (Human), UniProt Q96KQ7); experiment: in vitro methyltransferase assay, G9a enzyme activity; format: biochemical; settings: read-out: IC50, inhibitory activity towards G9a histone lysine methyltransferase
Sequence of G9a histone lysine methyltransferase (Q96KQ7 whole entry): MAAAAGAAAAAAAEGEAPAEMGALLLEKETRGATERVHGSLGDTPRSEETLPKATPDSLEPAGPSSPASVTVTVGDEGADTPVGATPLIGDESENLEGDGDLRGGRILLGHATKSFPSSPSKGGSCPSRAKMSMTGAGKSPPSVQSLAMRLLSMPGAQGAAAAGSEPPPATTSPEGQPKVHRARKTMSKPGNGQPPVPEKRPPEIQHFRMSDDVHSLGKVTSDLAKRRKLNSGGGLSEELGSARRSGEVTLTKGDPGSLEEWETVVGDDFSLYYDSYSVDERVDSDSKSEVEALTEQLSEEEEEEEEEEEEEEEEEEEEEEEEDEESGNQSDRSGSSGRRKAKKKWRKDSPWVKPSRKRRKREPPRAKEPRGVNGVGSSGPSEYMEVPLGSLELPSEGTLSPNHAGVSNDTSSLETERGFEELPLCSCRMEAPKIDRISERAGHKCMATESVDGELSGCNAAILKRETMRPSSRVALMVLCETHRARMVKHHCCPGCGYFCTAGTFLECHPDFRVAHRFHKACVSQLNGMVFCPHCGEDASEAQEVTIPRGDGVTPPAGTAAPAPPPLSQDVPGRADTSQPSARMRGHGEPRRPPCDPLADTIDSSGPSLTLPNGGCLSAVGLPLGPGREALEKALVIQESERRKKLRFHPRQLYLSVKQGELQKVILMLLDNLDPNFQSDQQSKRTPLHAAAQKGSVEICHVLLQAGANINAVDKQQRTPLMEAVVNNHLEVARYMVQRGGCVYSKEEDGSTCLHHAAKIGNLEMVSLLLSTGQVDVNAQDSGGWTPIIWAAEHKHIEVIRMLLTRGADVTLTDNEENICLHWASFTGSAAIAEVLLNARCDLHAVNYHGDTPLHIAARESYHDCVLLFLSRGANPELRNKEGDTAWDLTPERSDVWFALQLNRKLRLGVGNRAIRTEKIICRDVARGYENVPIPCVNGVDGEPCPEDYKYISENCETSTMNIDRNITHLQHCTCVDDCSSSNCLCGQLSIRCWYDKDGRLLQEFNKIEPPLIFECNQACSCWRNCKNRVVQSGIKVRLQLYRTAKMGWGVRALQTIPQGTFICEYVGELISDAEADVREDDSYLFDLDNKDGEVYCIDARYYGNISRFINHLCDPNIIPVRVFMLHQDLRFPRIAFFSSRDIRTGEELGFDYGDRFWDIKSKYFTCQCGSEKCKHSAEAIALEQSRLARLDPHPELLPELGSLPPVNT

STK19D89N = STK19D89N (Homo sapiens (Human), UniProt P49842, D89N); experiment: STK19 kinase assay, D89N mutant; settings: read-out: IC50 for STK19D89N
Sequence of STK19D89N (P49842 other isoform, or with tags, fused parts or gaps D89N): as the sequence (P49842 other isoform, or with tags, fused parts or gaps L139F) above, with D89N, F139L counted along it

[16] = test system: hTERT/p53DD/CDK4(R24C) melanocytes; experiment: cell proliferation assay of NRASQ61R-expressing immortal melanocytes; format: cell-based, human; settings: 3 μM IV
STK19 [17] = biological target: T1, STK19; experiment: STK19 kinase inhibitory activity, ADP-Glo kinase assay with NRAS substrate; format: biochemical
A375 cells [18] = experiment: caspase activity assay (apoptosis), 4 days; format: cell-based, human; settings: A375, 4 days
Text: as §1

SK-MEL-2 cells [19] = experiment: caspase activity assay (apoptosis), 4 days; format: cell-based, human; settings: SK-MEL-2, 4 days
Text: as §1

WM2032 cells [20] = experiment: caspase activity assay (apoptosis), 4 days; format: cell-based, human; settings: WM2032, 4 days
Text: as §1

[21] = test system: hTERT/p53DD/CDK4(R24C) melanocytes xenograft; experiment: xenograft tumor formation of engineered melanocytes in nude mice; format: in vivo, mouse
Experimental: as §3
The inventors also performed immunofluorescence on SK-MEL-2 xenograft tumors to investigate the effects of IV on in vivo proliferation and apoptosis, represented by Ki67 and cleaved caspase-3 staining.

STK19 V134Y = STK19 V134Y (Homo sapiens (Human), UniProt P49842, V134Y); experiment: STK19 kinase assay, V134Y mutant; settings: V134Y mutation
Sequence of STK19 V134Y (P49842 other isoform, or with tags, fused parts or gaps V134Y): as the sequence (P49842 other isoform, or with tags, fused parts or gaps L139F) above, with V134Y, F139L counted along it

[22] = blood chemistry in tolerability studies

COc1cc2nc(NC3CC3)nc(NC3CCN(C(C)C)CC3)c2cc1OC [Formula IV]
cell growth (A375 cells [1]): reduced impact
cell growth (SK-MEL-2 cells [2]): effectively inhibited
cell growth (WM2032 cells [3]): effectively inhibited
cell growth (UACC62 cells [4]): reduced impact
inhibitory potential of IV for STK19 L139F (STK19 L139F): remarkably compromised
phosphorylation of NRAS (STK19 [5]): efficiently inhibited
mutant NRAS/STK19-driven melanocyte colony formation [6]: significantly inhibited
NRAS signaling, including MEK-ERK and PI3K pathways (UACC62 cells [7]): much less effective
NRAS signaling, including MEK-ERK and PI3K pathways (SK-MEL-2 cells [8]; SK-MEL-2 (NRASQ61R)): effectively inhibited
NRAS phosphorylation and activity (SK-MEL-2 cells [8]; SK-MEL-2, IV 100 nM and 300 nM): effectively decreased
H3K9 methylation (SK-MEL-2 cells [8]; SK-MEL-2, IV up to 300 nM): no obvious effects
IV-mediated inhibition of oncogenic NRAS signaling after introduction of IV-resistant STK19 V134Y or L139F (SK-MEL-2 cells [8]; SK-MEL-2 cells): rescued
NRAS signaling, including MEK-ERK and PI3K pathways (WM2032 cells [9]; WM2032 (NRASQ61R)): effectively inhibited
NRAS phosphorylation and activity (WM2032 cells [9]; WM2032, IV 100 nM and 300 nM): effectively decreased
H3K9 methylation (WM2032 cells [9]; WM2032, IV up to 300 nM): no obvious effects
survival of SK-MEL-2 xenograft tumor-bearing mice ([10]; 25 and 50 mg/kg IV vs controls): significantly prolonged
growth of SK-MEL-2 xenograft melanoma ([10]; dose-dependent): inhibited growth
NRAS activity in SK-MEL-2 xenograft tumors ([10]; immunoblot, different doses): inhibited NRAS activity
levels of H3K9 methylation in SK-MEL-2 xenograft tumors ([10]; immunoblot, marker of G9a activity): did not affect
apoptosis of SK-MEL-2 tumors (cleaved caspase-3 staining) ([10]; mouse, in vivo): induced apoptosis
in vivo cell proliferation of SK-MEL-2 tumors (Ki67 staining) ([10]; mouse, in vivo): effectively inhibited
NRAS signaling, including MEK-ERK and PI3K pathways (A375 cells [11]): much less effective
apoptosis (UACC62 cells [12]): reduced impact
serum transaminase levels ([13]; C57BL/6J mice): did not affect
mouse weight ([13]; C57BL/6J mice, 25 mg/kg BID for 15 days): did not affect
histology of mouse tissues ([13]; C57BL/6J mice, 25 mg/kg BID for 15 days, H&E): did not affect
Alanine aminotransferase (ALT) [13, 22]: 27.6 ± 5.6 U/L
Albumin (ALB) [13, 22]: 28.3 ± 2.7 g/L
Alkaline phosphatase (ALP) [13, 22]: 3.9 ± 1.7 U/L
Aspartate aminotransferase (AST) [13, 22]: 54.4 ± 9.4 U/L
Creatinine (CRE) [13, 22]: 17.7 ± 4.2 µmol/L
Lactic dehydrogenase (LDH) [13, 22]: 247.3 ± 41.0 U/L
Phosphorus (P) [13, 22]: 1.67 ± 0.39
Total bilirubin (T-Bil) [13, 22]: 2.68 ± 0.44 µmol/L
Total protein (TP) [13, 22]: 50.9 ± 2.5 g/L
ΔTm at 100 µM (STK19 [14]): 6.8 °C
IC50 [15]: 467 nM
IC50 (STK19D89N): 27.9 nM
mutant NRAS/STK19-driven melanocyte proliferation [16]: significantly inhibited
inhibition at 10 µM (STK19 [17]): 84%
IC50 (STK19 [17]; STK19WT, read-out: IC50 for STK19WT): 24 nM
IC50 (STK19 [17]; STK19 kinase, read-out: IC50 (nm)): 24 nM
mode of inhibition (IC50 against STK19 at increasing ATP concentrations) (STK19 [17]; different ATP concentrations): ATP-competitive inhibitor
IC50 (STK19 [17]; measured as percentage of NRAS phosphorylation, read-out: IC50, inhibitory activity against STK19): 24 nM
apoptosis (A375 cells [18]): reduced impact
apoptosis (SK-MEL-2 cells [19]): induced apoptosis
apoptosis (WM2032 cells [20]): induced apoptosis
mutant NRAS/STK19-driven melanocyte tumor formation [21]: significantly inhibited
inhibitory potential of IV for STK19 V134Y (STK19 V134Y): remarkably compromised
